The values below are quoted from earlier work in paper PMC9775177, “NLRP3-Inflammasome Inhibition with IZD334 Does Not Reduce Cardiac Damage in a Pig Model of Myocardial Infarction” (Biomedicines, 2022).

The subject of data set [1] is large animal model of MI. Details: method as in PMID 27432019. The conditions noted are these: cited from earlier work.
The subject of data set [2] is IR injury in mice. Details: method as in PMID 30747785. The conditions noted are these: cited from earlier work.
Where [3] appears, read: large animal model, 7 days following MI.

For the molecule `CC(C)(O)c1coc(S(=O)(=O)NC(=O)Nc2c3c(cc4c2CCC4)CCC3)c1` [MCC950], in data set [1] (setting [3]), the “IS (infarct size)” value is “dose-dependently reduced IS” and the LV function entry is “improvement in LV function”. Moreover, in data set [1] (pigs treated with MCC950), the “circulating markers of inflammation” value is listed as “only modestly lower”.

Regarding `CS(=O)(=O)CCC#N` [OLT1177], in data set [2], the infarct development result is “limited infarct development” and the left ventricular dysfunction result was “prevented left ventricular dysfunction”.
